The results in this text go back to the supplement of paper PMC9663587.

Common to all, as to assay: GRmax, 72 h; higher = less effect;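 also: breast cell lines in 384-well plates, nine doses across a 10^4 range, Dye Drop imaging of viable cells vs DMSO and time-zero plates, GR 0 means no net growth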
Experiment [1] deals with HCC1419.
The subject of experiment [2] is BT549.
Experiment [3] concerns MCF12A.
Experiment [4] deals with MCF10A.
Experiment [5] concerns MGH312.
In experiment [6] the test system is 184A1.
In experiment [7] the test system is MDAMB175VII.
Experiment [8] relates to CAMA1.
For experiment [9], the system named is SUM1315.
The test system of experiment [10] is MDAMB330.
Experiment [11] relates to HTERT_HME1.
Experiment [12] deals with T47D.
Experiment [13] relates to SUM52PE.

Each structure is given as a SMILES string.

With `CC[C@@H]1C(=O)N(C)c2cnc(Nc3ccc(C(=O)N[C@H]4CC[C@H](N5CCN(CC6CC6)CC5)CC4)cc3OC)nc2N1C(C)C` [Volasertib/BI6727] (max 1 µM), the “GRmax, 72 h” value in experiment [1] was 0.0685 GR; in [2], -0.229 GR; in [3], -0.0126 GR; in experiment [4], -0.0887 GR; in [5], -0.675 GR; in experiment [6] it was -0.13 GR. Moreover, the “GRmax, 72 h” value in [7] is -0.115 GR; in [8], -0.296 GR; in [9], -0.388 GR; in experiment [10], -0.261 GR; in [11], -0.0817 GR; in experiment [12] it was -0.159 GR. The “GRmax, 72 h” value in [13] was -0.409 GR.
Take `O=C(CCCCCCC(=O)Nc1ccccc1)NO` [Vorinostat] (max 10 µM): the “GRmax, 72 h” value in experiment [1] was -0.256 GR; in [2] it was 0.113 GR; in experiment [3], 0.318 GR; in experiment [4] it was 0.0566 GR; in experiment [5], -0.945 GR; in experiment [6], -0.0468 GR. Moreover, the “GRmax, 72 h” value is -0.867 GR in [7]; -0.49 GR in experiment [8]; -0.0668 GR in experiment [9]; -0.872 GR in experiment [10]; 0.0551 GR in experiment [11]; -0.157 GR in experiment [12]. For the same compound, the “GRmax, 72 h” value in experiment [13] was found to be 0.0882 GR.
For `C=CC(=O)Nc1ccc(C(=O)Nc2[nH]nc3c2CN(C(=O)N[C@H](CN(C)C)c2ccccc2)C3(C)C)cc1` [YKL-5-124] (max 10 µM), the “GRmax, 72 h” value in experiment [1] was -0.411 GR; in [2] it was -0.58 GR; in experiment [3], 0.0267 GR; in experiment [4], -0.162 GR; in [5], -0.919 GR; in [6], -0.0615 GR. Also, the “GRmax, 72 h” value in [7] was -0.771 GR; in experiment [8], -0.604 GR; in [9] it was -0.406 GR; in experiment [10], -0.765 GR; in experiment [11], -0.144 GR; in experiment [12], -0.146 GR. Besides, the “GRmax, 72 h” value in experiment [13] amounted to 0.0084 GR.
For `CN1CCN(C(=O)c2ccc3cc(CCNc4ncnc5ccc(C#N)cc45)ccc3c2)CC1` [senexin b] (max 10 µM), the “GRmax, 72 h” value in experiment [1] is 0.445 GR; in [2] it was 0.675 GR; in experiment [3] it was 0.776 GR; in experiment [4], 0.851 GR; in experiment [5], 0.168 GR; in [6] it was 0.809 GR. Further, the “GRmax, 72 h” value in [7] was 0.205 GR; in [8], 0.229 GR; in experiment [9], 0.656 GR; in [10], 0.466 GR; in [11] it was 0.748 GR; in experiment [12], 0.213 GR. Besides, the “GRmax, 72 h” value in experiment [13] was 0.742 GR.
